In ChEMBL document CHEMBL2163249, “Exploration of natural compounds as sources of new bifunctional scaffolds targeting cholinesterases and beta amyloid aggregation: the case of chelerythrine” (Bioorg Med Chem, 2012):

Columns and labels:
[1] = target: Cholinesterase (Equus caballus) (UniProt P81908); details: at 2 mg/mL
Description: Inhibition of horse BChE at 2 mg/ml by Ellman's method

[2] = target: Acetylcholinesterase (Electrophorus electricus) (UniProt O42275); details: at 2 mg/mL
Description: Inhibition of electric eel AChE at 2 mg/ml by Ellman's method

Sequence of Cholinesterase (Equus caballus) (P81908 whole entry): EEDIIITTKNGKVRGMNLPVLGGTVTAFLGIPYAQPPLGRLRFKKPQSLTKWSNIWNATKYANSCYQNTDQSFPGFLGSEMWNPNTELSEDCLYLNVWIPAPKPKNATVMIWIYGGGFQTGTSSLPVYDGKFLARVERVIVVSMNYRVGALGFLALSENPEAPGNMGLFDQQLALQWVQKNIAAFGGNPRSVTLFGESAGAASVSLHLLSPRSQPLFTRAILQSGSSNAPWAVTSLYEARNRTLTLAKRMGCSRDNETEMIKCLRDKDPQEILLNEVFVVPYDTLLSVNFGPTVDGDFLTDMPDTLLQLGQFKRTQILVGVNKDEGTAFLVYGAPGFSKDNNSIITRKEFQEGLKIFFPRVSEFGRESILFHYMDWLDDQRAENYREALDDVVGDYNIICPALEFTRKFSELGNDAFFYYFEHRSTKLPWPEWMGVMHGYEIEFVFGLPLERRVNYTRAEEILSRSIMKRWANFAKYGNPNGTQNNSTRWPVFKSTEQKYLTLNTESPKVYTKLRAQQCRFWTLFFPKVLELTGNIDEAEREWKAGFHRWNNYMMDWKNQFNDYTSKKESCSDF

Molecule	inhibition [1] [%]	inhibition [2] [%]
CC(C)(O)CC[C@@H](O)[C@](C)(O)[C@H]1CC[C@@]2(O)C3=CC(=O)[C@@H]4C[C@@H](O)[C@@H](O)C[C@]4(C)[C@H]3CC[C@]12C	-3.01	3.26
COc1ccc2cc1Oc1ccc(cc1)C[C@H]1c3cc(c(OC)cc3CCN1C)Oc1c(OC)c(OC)c(OC)c3c1[C@H](C2)N(C)CC3	-7.66	23.4
c1coc(CNc2ncnc3[nH]cnc23)c1	3.13	-5.12
COc1ccc([C@@H]2CC(=O)c3c(O)cc(O)cc3O2)cc1O	-8.75	-4.02
COc1cc(-c2oc3cc(O)cc(O)c3c(=O)c2O)ccc1O	-2.06	5.76
O=c1cc(-c2ccc(O)c(O)c2)oc2cc(O)c([C@@H]3O[C@H](CO)[C@@H](O)[C@H](O)[C@H]3O)c(O)c12	-4.72	23.9
C[C@@H]1NCCc2cc(O)c(O)cc21	-1.84	19.3
C[C@@H]1Cc2c(Cl)cc(C(=O)N[C@@H](Cc3ccccc3)C(=O)O)c(O)c2C(=O)O1	8.75	-6.4
COc1ccc(CC2NCCc3cc(OC)c(OC)cc32)cc1OC (stereo unspecified)	7.36	4.06
C=C[C@H]1CN2CC[C@H]1C[C@H]2[C@H](O)c1ccnc2ccc(OC)cc12	24.7	15.8
COC(=O)C1=CCCN(C)C1	0.29	16.9
C=C[C@H]1CN2CC[C@H]1C[C@H]2[C@H](O)c1ccnc2ccccc12	-0.03	3.63
C[C@]1(C(=O)O)CCC[C@]2(C)c3cc(O)ccc3CC[C@@H]12	-2.99	-4.47
COc1c2c(cc3c1OCO3)CCN(C)C2	29.9	9.58
CCCC[N+]1(C)[C@@H]2C[C@@H](OC(=O)[C@H](CO)c3ccccc3)C[C@H]1[C@@H]1O[C@@H]12 (stereo partly specified)	-4.42	22.5
CC(=O)O[C@@H]1CC[C@@]2(C)[C@H](C1)[C@H](OC(C)=O)C[C@@H]1[C@@H]2C[C@H]2[C@@H]3CN4C[C@H](C)CC[C@H]4[C@H](C)[C@H]3CC[C@@]12O	4.14	26.8
COC1=C[C@@H](C)[C@@H]2C[C@H]3OC(=O)C[C@H]4C(C)=C(OC)C(=O)[C@H]([C@@]2(C)C1=O)[C@@]34C	4.69	24.7
C=C[C@@](C)(/C=C/c1ccc(O)cc1)CCC=C(C)C	13.4	-7.92
O=C(O)C1=C[C@@H](O)[C@@H](O)[C@H](O)C1	-4.96	-8.33
CCN1C[C@]2(C)CC[C@H](OC)[C@@]34C1[C@]1(OCO[C@@]15C[C@H](OC)[C@H]1C[C@]3(O)[C@@H]5[C@H]1OC)[C@@H](OC(C)=O)[C@H]24	0.02	29.5
COc1c(O)cc2c(c1O)[C@@H]1O[C@H](CO)[C@@H](O)[C@H](O)[C@H]1OC2=O	-0.62	7.33
COc1cc2c(c3oc4cccc(O)c4c(=O)c13)[C@@H]1C=CO[C@@H]1O2	-2.65	18.2
COc1cc(/C=C/C(=O)CC(=O)/C=C/c2ccc(O)c(OC)c2)ccc1O	2.41	-2.21

Molecule	inhibition [1] [%]	inhibition [2] [%]
C=C(C)[C@@H]1[C@H]2OC(=O)[C@@H]1[C@]1(O)C[C@H]3O[C@]34C(=O)O[C@H]2[C@]14C	-3.55	11.4
Cc1cccc2c3c(ccc12)C1=C(C(=O)C3=O)[C@@H](C)CO1	-3.19	3.53
O=C1/C(=C/c2ccc(O)c(O)c2)Oc2c1ccc(O[C@@H]1O[C@H](CO)[C@@H](O)[C@H](O)[C@H]1O)c2O	3.06	22.4
O=C(/C=C/c1ccc(O)c(O)c1)c1ccc(O[C@@H]2O[C@H](CO)[C@@H](O)[C@H](O)[C@H]2O)c(O)c1O	2.03	22.2
CC(C)C[C@H]1C(=O)N2CCC[C@H]2[C@]2(O)O[C@](NC(=O)[C@@H]3C=C4c5cccc6[nH]c(Br)c(c56)C[C@H]4N(C)C3)(C(C)C)C(=O)N12	9.94	-0.33
C[C@H]1C(=O)O[C@@H]2CCN3CC=C(COC(=O)[C@](C)(O)[C@]1(C)O)[C@H]23	4.32	19.5
CO[C@H](C)[C@](O)(C(=O)OCC1=CCN2CC[C@H](O)[C@@H]12)C(C)C	1.48	21.3
OC[C@H]1O[C@@H](Oc2ccc(O)cc2)[C@H](O)[C@@H](O)[C@@H]1O	6.63	9.16
CN1CCc2cc(O)c(O)cc2C1Cc1cc(O)c(O)cc1Br (racemic)	13.4	27.2
COc1cc([C@@H]2c3cc4c(cc3[C@H](O)[C@H]3COC(=O)[C@H]23)OCO4)cc(OC)c1OC	-9.54	8.74
CC1=C2C[C@H]3[C@@H](CC=C4C[C@@H](O)CC[C@@]43C)[C@@H]2CC[C@]12O[C@@H]1C[C@H](C)CN[C@H]1[C@H]2C	5.84	-3.81
CC1=C[C@]23C(=O)[C@@H](C=C(COC(=O)c4ccccc4)[C@@H](O)[C@]2(O)[C@H]1OC(=O)c1ccccc1)[C@H]1[C@@H](C[C@H]3C)C1(C)C	1	-0.16
C[C@@]12C(=O)OC(=O)[C@]1(C)[C@H]1CC[C@@H]2O1	-2.13	-7.81
CC1(C)CCC2=C(O1)c1ccccc1C(=O)C2=O	11.2	-2.91
CN1[C@H]2C[C@H](OC(=O)[C@H](CO)c3ccccc3)C[C@@H]1[C@@H](O)C2	8.08	9.43
C[N+]1([O-])[C@@H]2CC[C@H]1C[C@H](OC(=O)C(CO)c1ccccc1)C2 (stereo partly specified)	-2.78	25.9
COC(=O)[C@H]1[C@H]2C[C@H]3c4[nH]c5ccccc5c4CCN3C[C@@H]2CC[C@@H]1O	6.02	15.8
Cn1cnc2c1c(=O)[nH]c(=O)n2C	3.88	39.4
Cc1c(C(=O)O)c(O)cc2c1C(=O)c1c(O)c([C@@H]3O[C@H](CO)[C@@H](O)[C@H](O)[C@H]3O)c(O)c(O)c1C2=O	-1.98	21.5
C=CCc1ccc(O)c(-c2cc(CC=C)ccc2O)c1	0.25	-2.45
CN1Cc2c(ccc3c2OCO3)[C@@H]2[C@H]1c1cc3c(cc1C[C@@H]2O)OCO3	6.72	29.8
O=C1C[C@@H](c2ccc(O)cc2)Oc2cc(O[C@@H]3O[C@H](CO)[C@@H](O)[C@H](O)[C@H]3O)cc(O)c21	-1.72	18.7
CO[C@H]1/C=C/O[C@@]2(C)Oc3c(C)c(O)c4c(O)c(cc(O)c4c3C2=O)NC(=O)/C(C)=C\C=C\[C@H](C)[C@H](O)[C@@H](C)[C@@H](O)[C@@H](C)[C@H](OC(C)=O)[C@@H]1C	-3.13	-6.18

Molecule	inhibition [1] [%]	inhibition [2] [%]
COc1cc(C2Oc3cc([C@H]4Oc5cc(O)cc(O)c5C(=O)[C@@H]4O)ccc3OC2CO)ccc1O (stereo partly specified)	-7.94	7.08
OC[C@H]1O[C@@H](O[C@@H]2OC=C[C@H]3[C@H](O)[C@@H]4O[C@]4(CO)[C@@H]23)[C@H](O)[C@@H](O)[C@@H]1O	-5.36	11.3
N#C[C@H](O[C@@H]1O[C@H](CO[C@@H]2O[C@H](CO)[C@@H](O)[C@H](O)[C@H]2O)[C@@H](O)[C@H](O)[C@H]1O)c1ccccc1	5.7	0.78
CCN1C[C@]2(C)CC[C@H](O)[C@]34C1[C@@H](C[C@H]23)[C@@]1(O)C[C@H](OC)[C@H]2C[C@@H]4[C@@H]1[C@H]2O	-5.97	20
BLEOMYCIN	10.8	10.2
COc1ccc(/C=C/c2cc(OC)cc(=O)o2)cc1	-1.55	7.69
O=c1c(O)c(-c2cc(O)c(O)c(O)c2)oc2cc(O)ccc12	-7.22	15.7
CN1[C@@H]2CC[C@H]1C[C@H](O)C2	-9.24	1.27
COc1c2occc2c(OC)c2c(=O)cc(C)oc12	3.3	7.57
CC[C@H](C)/C=C(C)/C=C/C1=CC2=C(Cl)C(=O)[C@](C)(OC(C)=O)C(=O)C2=CO1	6.21	3.54
CCC1=C[C@@H]2CN(C1)Cc1c([nH]c3ccccc13)[C@@](C(=O)OC)(c1cc3c(cc1OC)N(C)[C@H]1[C@@](O)(C(=O)OC)[C@H](OC(C)=O)[C@]4(CC)C=CCN5CC[C@]31[C@@H]54)C2	12.2	-0.32
CCCCC[C@H](O)/C=C/[C@H]1[C@H](O)CC(=O)[C@@H]1CCCCCCC(=O)O	-1.69	16.6
CN1CCc2cc3c(cc2C(=O)Cc2ccc4c(c2C1)OCO4)OCO3	7.56	31.1
C=C(C)[C@H]1Cc2c(ccc3c2O[C@@H]2COc4cc(OC)c(OC)cc4[C@@H]2C3=O)O1	6.43	16.4
COC(=O)[C@H]1[C@H]2C[C@H]3c4[nH]c5cc(OC)ccc5c4CCN3C[C@H]2C[C@@H](OC(=O)c2cc(OC)c(OC)c(OC)c2)[C@@H]1OC	-8.07	-2.45
C[C@@H]1C[C@H]2O[C@@H]2/C=C\C=C\C(=O)Cc2c(Cl)c(O)cc(O)c2C(=O)O1	-1.22	17.4
C[C@H]1CCC[C@@H](O)CCCCCc2cc(O)cc(O)c2C(=O)O1	-4.26	-1.34
Oc1cc(O)cc(/C=C/c2ccc(O)c(O)c2)c1	2.21	17
CCN1C[C@]2(COC)[C@H](O)C[C@H](OC)[C@@]34[C@@H]5C[C@@]6(O)[C@H](OC(=O)c7ccccc7)[C@@H]5[C@@](OC(C)=O)([C@@H]([C@H](OC)[C@H]23)[C@@H]14)[C@@H](O)[C@@H]6OC	3.01	17.6
COc1ccc(/C=C/c2cc(O)cc(O[C@@H]3O[C@H](CO)[C@@H](O)[C@H](O)[C@H]3O)c2)cc1O	-4.38	-3.62
C/C=C1/C[C@@H](C)[C@@](C)(O)C(=O)OCC2=CCN3CC[C@@H](OC1=O)[C@@H]23	19.2	7.46
Cn1c(-c2ccc3c(c2)OCO3)cc(=O)c2ccccc21	9.48	31.1
